pIC50: −log10 of the molar value.
Tested on: 648629-189-R-J1-PDC spheroids with HUVEC/MSC, viability
Experiment: Anticancer human tumor 648629-189-R-J1-PDC patient-derived bladder carcinoma cell line growth inhibition [PI3K]
Settings: for pIC50: curve of first compound; for viability, T/C: stronger effect = lower value
Procedure, shortened: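 Tumor cells grown as multi-cell spheroids with HUVEC endothelial cells and MSC fibroblast-like stroma were treated with targeted agents combined with inavolisib, alpelisib, duvelisib or copanlisib. Doses fell in half-log steps from near clinical Cmax, else from 10 microM. Viability was measured.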

[1] = second compound 0.0316 µM, first compound 0.0316 µM
[2] = second compound 0.0316 µM, first compound 0.1 µM
[3] = second compound 0.0316 µM, first compound 0.316 µM
[4] = second compound 0.0316 µM, first compound 1 µM
[5] = second compound 0.0316 µM, first compound 3.16 µM
[6] = second compound 0.0316 µM, first compound 10 µM
[7] = second compound 0.1 µM, first compound 0.0316 µM
[8] = second compound 0.1 µM, first compound 0.1 µM
[9] = second compound 0.1 µM, first compound 0.316 µM
[10] = second compound 0.1 µM, first compound 1 µM
[11] = second compound 0.1 µM, first compound 3.16 µM
[12] = second compound 0.1 µM, first compound 10 µM
[13] = second compound 0.316 µM, first compound 0.0316 µM
[14] = second compound 0.316 µM, first compound 0.1 µM
[15] = second compound 0.316 µM, first compound 0.316 µM
[16] = second compound 0.316 µM, first compound 1 µM
[17] = second compound 0.316 µM, first compound 3.16 µM
[18] = second compound 0.316 µM, first compound 10 µM
[19] = second compound 1 µM, first compound 0.0316 µM
[20] = second compound 1 µM, first compound 0.1 µM
[21] = second compound 1 µM, first compound 0.316 µM
[22] = second compound 1 µM, first compound 1 µM
[23] = second compound 1 µM, first compound 3.16 µM
[24] = second compound 1 µM, first compound 10 µM
[25] = second compound 3.16 µM, first compound 0.0316 µM
[26] = second compound 3.16 µM, first compound 0.1 µM
[27] = second compound 3.16 µM, first compound 0.316 µM
[28] = second compound 3.16 µM, first compound 1 µM
[29] = second compound 3.16 µM, first compound 3.16 µM
[30] = second compound 3.16 µM, first compound 10 µM
[31] = second compound 10 µM, first compound 0.0316 µM
[32] = second compound 10 µM, first compound 0.1 µM
[33] = second compound 10 µM, first compound 0.316 µM
[34] = second compound 10 µM, first compound 1 µM
[35] = second compound 10 µM, first compound 3.16 µM
[36] = second compound 10 µM, first compound 10 µM
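Also: spheroids exposed to agents for seven days before reading.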
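For viability, T/C in this document: percent of vehicle control luminescence where 100% = DMSO treated spheroids.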

`CC1(C)CCC(CN2CCN(c3ccc(C(=O)NS(=O)(=O)c4ccc(NCC5CCOCC5)c([N+](=O)[O-])c4)c(Oc4cnc5[nH]ccc5c4)c3)CC2)=C(c2ccc(Cl)cc2)C1` + Cc1nc(NC(=O)N2CCCC2C(N)=O)sc1-c1ccnc(C(C)(C)C(F)(F)F)c1 was tested, and the pIC50 (second compound 0.0316 µM) was 5.31, the pIC50 (second compound 0.1 µM) was 5.33 and the pIC50 (second compound 0.316 µM) was 5.33. It also gave a pIC50 (second compound 1 µM) of 5.33, a pIC50 (second compound 3.16 µM) of 5.43 and a pIC50 (second compound 10 µM) greater than 7.50. The viability, T/C [1] was 122%, the viability, T/C [2] was 100% and the viability, T/C [3] was 102%. The viability, T/C [4] was 91.6%, the viability, T/C [5] was 78.4% and the viability, T/C [6] was 9.8%. The viability, T/C [7] was 106%, the viability, T/C [8] was 102% and the viability, T/C [9] was 106%. For the same molecule, the viability, T/C [10] was 94.9%, the viability, T/C [11] was 71.6% and the viability, T/C [12] was 9.33%. The viability, T/C [13] was 98.3%, the viability, T/C [14] was 85.1% and the viability, T/C [15] was 92.2%. The viability, T/C [16] was 84.4%, the viability, T/C [17] was 72.5% and the viability, T/C [18] was 9.78%. It also gave a viability, T/C [19] of 83.8%, a viability, T/C [20] of 78.1% and a viability, T/C [21] of 74.3%. It also gave a viability, T/C [22] of 78.5%, a viability, T/C [23] of 73.2% and a viability, T/C [24] of 6.85%. For the same molecule, the viability, T/C [25] was 61.2%, the viability, T/C [26] was 57% and the viability, T/C [27] was 58.3%. It also gave a viability, T/C [28] of 57.9%, a viability, T/C [29] of 56% and a viability, T/C [30] of 12.8%. It also gave a viability, T/C [31] of 43.5%, a viability, T/C [32] of 37.1% and a viability, T/C [33] of 40.1%. The viability, T/C [34] was 38.3%, the viability, T/C [35] was 43.1% and the viability, T/C [36] was 7.34%.

`CCCS(=O)(=O)Nc1ccc(F)c(C(=O)c2c[nH]c3ncc(-c4ccc(Cl)cc4)cc23)c1F` + Cc1nc(NC(=O)N2CCCC2C(N)=O)sc1-c1ccnc(C(C)(C)C(F)(F)F)c1 was tested, and the pIC50 (second compound 0.0316 µM) was 5.29, the pIC50 (second compound 0.1 µM) was 5.30 and the pIC50 (second compound 0.316 µM) was 5.32. It also gave a pIC50 (second compound 1 µM) of 5.37, a pIC50 (second compound 3.16 µM) of 5.43 and a pIC50 (second compound 10 µM) greater than 7.50. It also gave a viability, T/C [1] of 122%, a viability, T/C [2] of 104% and a viability, T/C [3] of 123%. For the same molecule, the viability, T/C [4] was 110%, the viability, T/C [5] was 86.2% and the viability, T/C [6] was 0.2%. It also gave a viability, T/C [7] of 115%, a viability, T/C [8] of 102% and a viability, T/C [9] of 114%. For the same molecule, the viability, T/C [10] was 107%, the viability, T/C [11] was 84% and the viability, T/C [12] was 0.34%. For the same molecule, the viability, T/C [13] was 93.3%, the viability, T/C [14] was 97.4% and the viability, T/C [15] was 96.9%. The viability, T/C [16] was 90.7%, the viability, T/C [17] was 79% and the viability, T/C [18] was 0.27%. It also gave a viability, T/C [19] of 81.1%, a viability, T/C [20] of 96.7% and a viability, T/C [21] of 103%. For the same molecule, the viability, T/C [22] was 84.7%, the viability, T/C [23] was 68.7% and the viability, T/C [24] was 0.67%. The viability, T/C [25] was 63.1%, the viability, T/C [26] was 65.7% and the viability, T/C [27] was 62%. For the same molecule, the viability, T/C [28] was 53.1%, the viability, T/C [29] was 58% and the viability, T/C [30] was 0.64%. For the same molecule, the viability, T/C [31] was 43.7%, the viability, T/C [32] was 44.1% and the viability, T/C [33] was 33.7%. It also gave a viability, T/C [34] of 37%, a viability, T/C [35] of 27.3% and a viability, T/C [36] of 0.85%.

Molecule `CNC(=O)c1ccc(N2C(=S)N(c3ccc(C#N)c(C(F)(F)F)c3)C(=O)C2(C)C)cc1F` + Cc1nc(NC(=O)N2CCCC2C(N)=O)sc1-c1ccnc(C(C)(C)C(F)(F)F)c1 has a pIC50 (second compound 0.0316 µM) of less than 5.00, a pIC50 (second compound 0.1 µM) of less than 5.00 and a pIC50 (second compound 0.316 µM) of less than 5.00. For the same molecule, the pIC50 (second compound 1 µM) was less than 5.00, the pIC50 (second compound 3.16 µM) was less than 5.00 and the pIC50 (second compound 10 µM) was greater than 7.50. For the same molecule, the viability, T/C [1] was 106%, the viability, T/C [2] was 105% and the viability, T/C [3] was 118%. It also gave a viability, T/C [4] of 111%, a viability, T/C [5] of 104% and a viability, T/C [6] of 89.7%. The viability, T/C [7] was 90.1%, the viability, T/C [8] was 92.7% and the viability, T/C [9] was 106%. It also gave a viability, T/C [10] of 102%, a viability, T/C [11] of 102% and a viability, T/C [12] of 79%. It also gave a viability, T/C [13] of 91.4%, a viability, T/C [14] of 99.7% and a viability, T/C [15] of 98.1%. The viability, T/C [16] was 98.4%, the viability, T/C [17] was 89.7% and the viability, T/C [18] was 72.8%. For the same molecule, the viability, T/C [19] was 73.2%, the viability, T/C [20] was 82.3% and the viability, T/C [21] was 76.7%. The viability, T/C [22] was 81.1%, the viability, T/C [23] was 78.6% and the viability, T/C [24] was 75.2%. The viability, T/C [25] was 64%, the viability, T/C [26] was 67.1% and the viability, T/C [27] was 55.1%. For the same molecule, the viability, T/C [28] was 60.7%, the viability, T/C [29] was 64.7% and the viability, T/C [30] was 63.2%. For the same molecule, the viability, T/C [31] was 40.3%, the viability, T/C [32] was 44.1% and the viability, T/C [33] was 40.2%. For the same molecule, the viability, T/C [34] was 42%, the viability, T/C [35] was 45.7% and the viability, T/C [36] was 48.6%.

Source: PubChem BioAssay AID1963974 (Molecular Pharmacology Branch, DTP, NCI, 2024)
